From patent publication US8865672B2, “Prevention of tissue ischemia and related methods” (The United States of America, as represented by the …, priority 2006, dated 2014)
One block for each molecule: values may come before it. Peptide text beside a SMILES is read from it.

How the values were obtained:
[1] = tested on: blood pressure and pulse in mice; experiment: Blood pressure and pulse measurements (tail cuff); type: in vivo, mouse
Method: Mean systolic, diastolic and arterial blood pressure (BP) and mean pulse was measured in age and sex matched mice using a computerized tail cuff system (Hatteras Systems, MC4000 Blood Pressure Analysis System, Cary, N.C.). The mice were allowed to acclimate to the apparatus for 5 min prior to the start of measurement. Each animal underwent a cycle of 10 preliminary and 50 experimental pressures measurements for data acquisition and data calculation. Animals were acclimated to the measuring system and protocol for 4 days with treatment with data acquisition being performed on the 5th day. Pressures recordings were performed at the same time each day. Data was accepted if the mouse had valid readings for at least 20 consecutive pulse beats. All studies were performed at the same hour each day.
Respirations were monitored continuously monitored by direct observation of the animal. Body core temperature was measured via rectal probe. Temperature control was performed using a water-circulating warming surface and heating lamp. Following a 15 minute period of stabilization mean systolic, diastolic and arterial blood pressure and mean pulse measurements were determined.

NO/cGMP signaling = experiment: cGMP signaling (NO-stimulated cGMP, immunoassay); type: cell-based, human; settings: concentration for 50% inhibition of effect
Method: Vascular cells (endothelial) or HT-1080 cells (10^4 cells/well) grown overnight in 12-well culture in SM-GM containing 2% FCS or RPMI+10% FCS respectively and then weaned off serum over 48 h before treatment with NO donors and other agents in serum/additive free medium+0.1% BSA. Intracellular cGMP levels were determined using an enzyme immunoassay (Amersham, GE Health Care, UK). In other experiments fresh washed human platelets were incubated in Tyrode's buffer and the indicated treatment agents±NO and cGMP determined.

human platelets [2] = experiment: cGMP in human platelets; type: cell-based; settings: washed human platelets in Tyrode's buffer
Method: Fresh human platelets at 2×10^5 platelets/μl in Tyrode's buffer or PRP were pre-incubated with the indicated agents for 15 minutes and then challenged with DEA/NO for the indicated time interval at room temperature and total cGMP determined via immunoassay (Amersham, GE Healthcare, Buckinghamshire, UK). Murine WT and TSP1-null platelets were treated with DEA/NO and cGMP flux measured.

human platelets [3] = experiment: Thrombin-induced human platelet aggregation; type: cell-based; settings: DEA/NO 10 μM
Method: Platelets were pelleted from platelet-rich plasma (PRP) by centrifugation for 10 minutes at 200 g. They were then washed with acid citrate dextrose (ACD) (85 mM citric acid, 65 mM sodium citrate, 100 mM glucose, pH 5.1) at a ratio of 1:7 at room temperature. After pelleting the platelets again and removing the supernatant, the platelets were resuspended in 5 mL of Tyrode's buffer (137 mM NaCl, 3 mM KCl, 12 mM NaHCO3, 0.3 mM NaHPO4, 2 mM CaCl2, 1 mM MgCl2, 5.5 mM glucose, 5 mM HEPES, 3.5 mg/mL BSA, pH 7.4). The final platelet number was adjusted to […] in 500 μl/cuvette of Tyrode's buffer.
Aggregation of human platelets under high shear conditions was assessed using a standard optical aggregometer (Lumi-Dual Aggregometer, Chrono-Log Corp., Havertown, Pa.) at 37° C. and 1200 rpm in a volume of 500 μl buffer with a final platelet concentration of 2×10^5 platelets/μl over a 5 minute interval. Pre-incubation with TSP1 and TSP1-based agents was for 15 minutes prior to addition of thrombin and/or the rapidly releasing nitric oxide donor DEA/NO. In some experiments platelets were pre-incubated with the Rap1 inhibitor GGTI-298 (10 μM) (Calbiochem, La Jolla, Calif.) for 30 minutes prior to initiating aggregation. In other high shear aggregation experiments murine platelets were prepared as above with the following modifications. Mouse blood was collected by retro-orbital bleeding of anesthetized mice using heparinized tubes. PRP was prepared and then diluted with 4 vol. of Tyrodes containing 5 mM EDTA to prevent activation. After collection by centrifugation, platelets were resuspended in 2× initial PRP volume and held at room temperature for less than 1 hour before use. Aggregation conditions consisted of 250 μL of washed platelets stirred at 1200 rpm in a Chronolog Optical aggregometer at 37° C. DEA/NO (10 μM) was added 30 seconds prior to activation and 8-BrcGMP added 15 min prior to activation with 0.2 U/ml human thrombin. Data was collected using Chronolog “Aggrolink” software. Platelet aggregation under static conditions was assessed using a spectrophotometer (Beckman DU 640, Beckman Coulter, Fullerton, Calif.) and determined as a change in absorbance at 400 nm with continuous observation over a five minute interval. The cuvette was inverted once every 60 seconds. Pre-incubation with TSP1 and TSP1-based agents was for 15 minutes prior to addition of thrombin and/or DEA/NO to minimize the formation of thrombin-serpinthrombospondin complexes (Chang & Detwiler, Arch Biochem Biophys. 299:100-104, 1992), which interfere with thrombin-platelet interactions.
Fresh human platelets were suspended in Tyrode's buffer and under low shear conditions thrombin-stimulated aggregation measured as described. Platelets were then treated with peptide C6d (1 μM)±NO (10 μM DEA/NO) and thrombin and aggregation measure.

HUVEC = experiment: NO-stimulated HUVEC adhesion on type I collagen; type: cell-based, human; settings: DEA/NO 10 μM, 1 h
Method: Cell adhesion was carried out in 96-well culture plates. After pre-coating wells with type I collagen (3 μg/ml in DPBS) harvested cells were plated at a density of 1×10^4 cells/well in medium plus 0.1% BSA and treatment agents and incubated in 5% CO2 for 1 h. Wells were washed with PBS and cells fixed with 1% glutaraldehyde for 10 min., washed and stained with 1% crystal violet for 20 min. Excess stain was rinsed away, adherent cells treated with 10% acetic acid, and plates read at 570 nm.

Molecule: CCCN(CCCN)/[N+]([O-])=N/O [PAPA/NO]
mean arterial blood pressure response ([1]; CD47 null animals, i.p.): greatest drop in mean arterial blood pressure
blood pressure response ([1]; TSP1 null versus wild type, i.p.): drop in mean arterial pressure always greater in the absence of TSP1
mean pulse ([1]; after i.p. challenge): only modestly increased

IC50 (NO/cGMP signaling): > 10000 nM
Molecule: CC[C@H](C)[C@H](N)C(=O)NCC(=O)N[C@@H](Cc1c[nH]c2ccccc12)C(=O)N[C@@H](CCCCN)C(=O)N[C@@H](CC(N)=O)C(=O)N[C@@H](Cc1ccccc1)C(=O)N[C@H](C(=O)N[C@@H](C)C(=O)N[C@@H](Cc1ccc(O)cc1)C(=O)N[C@@H](CCCNC(=N)N)C(=O)O)[C@@H](C)O [compound 37297, IGWKNFTAYR] (H-IGWKNFTAYR-OH)

IC50 (NO/cGMP signaling): > 10000 nM
Molecule: CC[C@H](C)[C@H](N)C(=O)NCC(=O)N[C@@H](Cc1c[nH]c2ccccc12)C(=O)N[C@@H](CCCCN)C(=O)N[C@@H](CC(=O)O)C(=O)N[C@@H](Cc1ccccc1)C(=O)N[C@@H](C)C(=O)N[C@@H](C)C(=O)N[C@@H](Cc1ccc(O)cc1)C(=O)N[C@@H](CCCNC(=N)N)C(=O)O [compound 37299, IGWKDFAAYR] (H-IGWKDFAAYR-OH)

IC50 (NO/cGMP signaling): ~1000 nM
Molecule: CC(=O)N[C@@H](Cc1c[nH]c2ccccc12)C(=O)N[C@@H](CCCCN)C(=O)N[C@@H](CC(=O)O)C(=O)N[C@@H](Cc1ccccc1)C(=O)N[C@H](C(=O)N[C@@H](C)C(=O)N[C@@H](Cc1ccc(O)cc1)C(=O)N[C@@H](CCCNC(=N)N)C(=O)O)[C@@H](C)O [compound 37300, Ac-WKDFTAYR] (Ac-WKDFTAYR-OH)

IC50 (NO/cGMP signaling): > 10000 nM
Molecule: CC[C@H](C)[C@H](N)C(=O)NCC(=O)N[C@@H](Cc1c[nH]c2ccccc12)C(=O)N[C@@H](C)C(=O)N[C@@H](CC(=O)O)C(=O)N[C@@H](Cc1ccccc1)C(=O)N[C@H](C(=O)N[C@@H](C)C(=O)N[C@@H](Cc1ccc(O)cc1)C(=O)N[C@@H](CCCNC(=N)N)C(=O)O)[C@@H](C)O [compound 37413, IGWADFTAYR] (H-IGWADFTAYR-OH)

IC50 (NO/cGMP signaling): > 10000 nM
Molecule: CC[C@H](C)[C@H](N)C(=O)NCC(=O)N[C@@H](Cc1c[nH]c2ccccc12)C(=O)N[C@@H](Cc1c[nH]cn1)C(=O)N[C@@H](CC(=O)O)C(=O)N[C@@H](Cc1ccccc1)C(=O)N[C@H](C(=O)N[C@@H](C)C(=O)N[C@@H](Cc1ccc(O)cc1)C(=O)N[C@@H](CCCNC(=N)N)C(=O)O)[C@@H](C)O [compound 37414, IGWHDFTAYR] (H-IGWHDFTAYR-OH)

IC50 (NO/cGMP signaling): 1000 nM
Molecule: CC[C@H](C)[C@H](N)C(=O)NCC(=O)N[C@@H](Cc1c[nH]c2ccccc12)C(=O)N[C@@H](CCCCN)C(=O)N[C@@H](CCC(=O)O)C(=O)N[C@@H](Cc1ccccc1)C(=O)N[C@H](C(=O)N[C@@H](C)C(=O)N[C@@H](Cc1ccc(O)cc1)C(=O)N[C@@H](CCCNC(=N)N)C(=O)O)[C@@H](C)O [compound 37415, IGWKEFTAYR] (H-IGWKEFTAYR-OH)

IC50 (NO/cGMP signaling): ~1000 nM
Molecule: C[C@H](N)C(=O)NCC(=O)N[C@@H](Cc1c[nH]c2ccccc12)C(=O)N[C@@H](CCCCN)C(=O)N[C@@H](CC(=O)O)C(=O)N[C@@H](Cc1ccccc1)C(=O)N[C@H](C(=O)N[C@@H](C)C(=O)N[C@@H](Cc1ccc(O)cc1)C(=O)N[C@@H](CCCNC(=N)N)C(=O)O)[C@@H](C)O [compound 37416, AGWKDFTAYR] (H-AGWKDFTAYR-OH)

IC50 (NO/cGMP signaling): ~100 nM
Molecule: CC[C@H](C)[C@H](N)C(=O)NCC(=O)N[C@@H](Cc1ccc(O)cc1)C(=O)N[C@@H](CCCCN)C(=O)N[C@@H](CC(=O)O)C(=O)N[C@@H](Cc1ccccc1)C(=O)N[C@H](C(=O)N[C@@H](C)C(=O)N[C@@H](Cc1ccc(O)cc1)C(=O)N[C@@H](CCCNC(=N)N)C(=O)O)[C@@H](C)O [compound 37417, IGYKDFTAYR] (H-IGYKDFTAYR-OH)

IC50 (NO/cGMP signaling): ~10000 nM
Molecule: CC[C@H](C)[C@H](N)C(=O)NCC(=O)N[C@@H](Cc1c[nH]c2ccccc12)C(=O)N[C@@H](CCCCN)C(=O)N[C@@H](CC(=O)O)C(=O)N[C@@H](Cc1ccccc1)C(=O)N[C@H](C(=O)N[C@@H](C)C(=O)N[C@@H](C)C(=O)N[C@@H](CCCNC(=N)N)C(=O)O)[C@@H](C)O [compound 37555, IGWKDFTAAR] (H-IGWKDFTAAR-OH)

Molecule: FC(F)OC(Cl)C(F)(F)F (stereo not shown) [isoflurane, Isoflurane]
blood pressure under general anesthesia ([1]; TSP1-null animals): significant decreases in systolic, diastolic and mean arterial blood pressures
blood pressure under general anesthesia ([1]; wild type mice): very modest overall drop in mean arterial pressure

Molecule: E123CaG-1: recombinant C-terminal domains of TSP1
NO stimulated cGMP in platelets (human platelets [2]): inhibited NO stimulated cGMP flux
NO delay of thrombin-induced platelet aggregation (human platelets [3]; high shear, thrombin 0.2 U/ml): blocked the ability of NO to delay thrombin-induced aggregation
NO delay of thrombin-induced platelet aggregation (human platelets [3]; static / low shear conditions): reversed the NO delay of aggregation under static conditions

Molecule: FIRGGMYEGKK [compound 604, control peptide for 7N3]
NO delay of thrombin-induced platelet aggregation (human platelets [3]; high shear, thrombin 0.2 U/ml): no effect

Molecule: FIRVAIYEGKK [compound 605, control peptide for 7N3]
NO delay of thrombin-induced platelet aggregation (human platelets [3]; high shear, thrombin 0.2 U/ml): no effect

cGMP signaling IC50 (NO/cGMP signaling): inactive
Molecule: IGWKAFTAYR [compound 37296]

cGMP signaling IC50 (NO/cGMP signaling): inactive
Molecule: IGWKDFTAYK [compound 37554]

Molecule: KRFKQDGGWSHWSPWSS [p246]
NO delay of thrombin-induced platelet aggregation (human platelets [3]; static / low shear conditions): inactive

Molecule: KRFYVVMWKK [4N1K, derivative of the 4N1-1 peptide with terminal lysines]
NO delay of thrombin-induced platelet aggregation (human platelets [3]; static / low shear conditions): prevented an NO-stimulated delay in platelet aggregation

Molecule: RFYGGMWK [p4N1G, control peptide, VVM substituted by GGM]
NO-stimulated endothelial cell adhesion on type I collagen (HUVEC): did not significantly inhibit

Molecule: RFYVVMWK [4N1-1]
NO-stimulated endothelial cell adhesion on type I collagen (HUVEC): inhibited NO-stimulated endothelial cell adhesion
NO delay of thrombin-induced platelet aggregation (human platelets [3]; static / low shear conditions): prevented an NO-stimulated delay in platelet aggregation

Molecule: VTAGGGVQKRSRL [p906]
NO-stimulated endothelial cell adhesion on type I collagen (HUVEC): inhibited NO-stimulated endothelial cell adhesion
NO delay of thrombin-induced platelet aggregation (human platelets [3]; static / low shear conditions): reversed an NO-stimulated delay of platelet aggregation

Molecule: fibrinogen
NO delay of thrombin-induced platelet aggregation (human platelets [3]; high shear, thrombin 0.2 U/ml): no significant effect

Molecule: fibronectin [reference compound]
NO stimulated cGMP in platelets (human platelets [2]): no inhibition
NO delay of thrombin-induced platelet aggregation (human platelets [3]; high shear, thrombin 0.2 U/ml): no significant effect
